What was measured:
Verrucomicrobia = assay: Long-term SHIME fermentation (colon model), 16S rRNA gene sequencing and flow cytometry: abundance of Verrucomicrobia; conditions: FIG. 1, mucus of the transverse colon, end of three-week treatment vs end of control period (n=3), probiotic 1*10^10 CFU/reactor, vitamin B2 10 mg/day, significance p<0.05
Excerpt: (§1) The typical reactor setup of the SHIME®, representing the gastrointestinal tract of the adult human, was described by Molly et al. (1993) Applied Microbiology and Biotechnology 39(2):254-258. Inoculum preparation, retention time, pH, temperature settings and reactor feed composition were previously described by Possemiers et al. (2004) FEMS Microbiol Ecol. 49(3):495-507. Compared to the typical setup of the SHIME, the long-term SHIME experiment used for this example included some adaptations. In one reactor, at first, the conditions of the stomach were simulated, before being changed by the computer to conditions simulating the small intestine. […]
(§2) Samples for quantitative 16S-targeted Illumina sequencing were collected 3×/week during the last week of the control and treatment period. […] The obtained high-resolution proportional phylogenetic information (i.e., proportional abundances (%)) was combined with an accurate quantification of total bacterial cells via flow cytometry to obtain quantitative data at phylum, family, and species level. […] Samples were analyzed on a BD Facsverse (BDBiosciences, Erembodegem, Belgium) using the high-flowrate setting and bacteria were separated from medium debris and signal noise by applying a threshold level of 200 on the SYTO channel. […]

Akkermansia muciniphila = assay: Long-term SHIME fermentation (colon model), 16S rRNA gene sequencing and flow cytometry: abundance of Akkermansia muciniphila; conditions: FIG. 3, mucus of the transverse colon, end of three-week treatment vs end of control period (n=3), probiotic 1*10^10 CFU/reactor, vitamin B2 10 mg/day, significance p<0.05
Excerpt: as §1, §2

Akkermansiaceae = assay: Long-term SHIME fermentation (colon model), 16S rRNA gene sequencing and flow cytometry: abundance of Akkermansiaceae; conditions: FIG. 2, mucus of the transverse colon, end of three-week treatment vs end of control period (n=3), probiotic 1*10^10 CFU/reactor, vitamin B2 10 mg/day, significance p<0.05
Excerpt: as §1, §2

Lactobacillus rhamnosus GG
did not significantly change: abundance of Verrucomicrobia compared to the control (Verrucomicrobia) | abundance of Akkermansia muciniphila compared to the control (Akkermansia muciniphila) | abundance of Akkermansiaceae compared to the control (Akkermansiaceae)

From patent US20260069643A1, “COMBINATIONS COMPRISING VITAMIN B2 AND LACTOBACILLUS RHAMNOSUS” (DSM IP Assets B.V., priority 2022, published 2026)
